Laboratory results published in patent US20230203482A1, “Methods of Rescuing Stop Codons via Genetic Reassignment with ACE-tRNA” (THE WISTAR INSTITUTE OF ANATOMY AND BIOLOGY, priority 2017, published 2023).

B1: Glychr19.trna2: top performing glycine ACE-tRNA UGA suppressor, SEQ ID NO: 53 (nucleic acid)
chain: GCGTTGGTGGTATAGTGGTTAGCATAGCTGCCTTCAAAGCAGTTGACCCGGGTTCGATTCCCGGCCAACGCA
modifications: chemistry not fully specified

Tested on: CFTR W1282X
Experiment: CFTR W1282X rescue, western blot in HEK cells
Format: cell-based, human
Details: CFTR W1282X cDNA co-expressed in HEK cells, antibody M3A7
Experimental: To assess is these novel tRNA could rescue CFTR channels harboring nonsense codons, they were co-expressed in mammalian HEK cells with a CFTR W1282X cDNA plasmid. The cellular preparations were analyzed by standard biochemical approaches via Western blot assessment of CFTR protein. […] Specifically, the “B” and “C” bands represent the full-length and fully mature, post-translationally proceeded CFTR protein at the cell surface, respectively. […] FIG. 9.
For expression in mammalian cells, the cDNA for the coding region and 200 base-pair of the 3′ untranslated region (UTR) of human CFTR was ligated into pcDNA3.1(+) (Promega, USA) using the KpnI and XbaI restriction enzymes. The G542tga and W1282tga mutations were introduced using QuickChange XL II (Stratagene, USA). For expression in Xenopus laevis oocytes, the cDNA for the coding region and 140 base-pair of the 5′ and 244 base-pair 3′ UTR of human CFTR was ligated into pGEM-HE (Promega, USA). Bothe the G542tga and W1282tga mutations were introduced using QuickChange XL II. The cDNA encoding the E. coli histidinol dehydrogenase was codon optimized for Mus musculus and synthesized (BioBasic Inc, Canada) with a c-terminal 8xHis-Strep-tag for protein purification from mammalian cells. The synthesized cDNA was ligated into pcDNA3.1(+) using EcoRI and XhoI restriction sites. […]

Molecule | rescue of full-length CFTR protein (B and C bands)
Trpchr17.trna39: top performing tryptophan ACE-tRNA UGA suppressor, SEQ ID NO: 48 | robust populations of ‘B’ and ‘C’ CFTR immunopositive (antibody MA37) bands
B1 | robust populations of ‘B’ and ‘C’ CFTR immunopositive (antibody MA37) bands
